In patent US20180228787A1, “AMELIORATION OF CERTAIN DEFICIENCIES DUE TO STROKE” (NEURALSTEM, INC., priority 2017, published 2018):

What was measured:
Type in all cases: in vivo, Sprague-Dawley rats
[1] = system: middle cerebral artery occlusion (MCAo) stroke rats; assay: Elevated body swing test (EBST) after MCAo stroke
From the text: (§1) A. Stroke surgery. Sixty (60) adult Sprague-Dawley, male rats (weighing around 250 g at beginning of the study) received experimental stroke surgery using the middle cerebral artery occlusion (MCAo) model, under aseptic conditions. […] were anesthetized with 1-2% isoflurane in nitrous oxide/oxygen (69%/30%) using a face mask and checked for pain reflexes. Under deep anesthesia, animals underwent the MCAo surgery which entails insertion of a filament through the carotid artery to reach the junction of the MCA, thus blocking the blood flow from the common carotid artery, as well as from the circle of Willis.
The right common carotid artery was identified and isolated through a ventral midline cervical incision and suture size 4-0, made of sterile, non-absorbable suture (Ethicon, Inc.), with the diameter of the suture tip tapered to 24 to 26-gauge size using a rubber cement. […]
To further ensure similar degree of stroke insults, physiological parameters including PaO2, PaCO2, and plasma pH measurements were monitored. Based on laser Doppler readouts and behavioral tests after MCAs, a total of 48 animals were enrolled in this study. […]
C. […] The direction of the swing, either left or right, was counted once the animals head moves sideways approximately 10 degrees from the midline position of the body. […]

[2] = system: middle cerebral artery occlusion (MCAo) stroke rats; assay: Bederson neurological exam after MCAo stroke
From the text: as §1
The right common carotid artery was identified and isolated through a ventral midline cervical incision and suture size 4-0, made of sterile, non-absorbable suture (Ethicon, Inc.), with the diameter of the suture tip tapered to 24 to 26-gauge size using a rubber cement. About 15 to 17 mm of the filament was inserted from the junction of the external and internal carotid arteries to block the MCA. The right MCA was occluded for one hour. A heating pad and a rectal thermometer allowed maintenance of body temperature within normal limits (37±0.3° C.).
To further ensure similar degree of stroke insults, physiological parameters including PaO2, PaCO2, and plasma pH measurements were monitored. Based on laser Doppler readouts and behavioral tests after MCAs, a total of 48 animals were enrolled in this study.
B. Drug Treatment. In the treated subjects, 30 mg/kg of the phosphate of formula (2) wherein R^1 is isoamyl (NSI-189 H3PO4 (mol. wt. 464.50)), 99.8% pure based on the weight of the API (active pharmaceutical ingredient) base without the weight of phosphate salt was administered orally in 0.03N HCl in deionized water (n=24) or vehicle (n=24) was administered following MCAo 6 hours after stroke, and daily for the next 12 weeks.
About one hour after the EBST, the Bederson neurological exam was conducted using 3 tests: (1) forelimb retraction—measuring the ability of the rat to replace the forelimb after it was displaced laterally by 2 to 3 cm, graded from 0 (immediate replacement) to 3 (replacement after several seconds or no replacement); (2) beam walking ability, graded 0 for a rat that readily traversed a 2.4-cm-wide, 80-cm-long beam to 3 for a rat unable to stay on the beam for 10 seconds; and (3) bilateral forepaw grasp—the ability to hold onto a 2-mm-diameter steel rod, graded 0 for a rat with normal forepaw grasping behavior to 3 for a rat unable to grasp with the forepaws. The scores from all 3 tests, which were done over a period of about 15 minutes on each assessment day, were added to give a mean neurologic deficit score (maximum possible score, 9 points divided by 3 tests=3). […]

MAP2 = MAP2 immunohistochemistry of stroke brains
From the text: (§2) At scheduled intervals post-stroke (either 12 weeks or 24 weeks), rats of Example 1 were randomly euthanized (n=12 per treatment), perfused by transcardial perfusion with 4% paraformaldehyde. The brains were dissected, post-fixed for overnight in 4% paraformaldehyde, then subsequently immersed in 30% sucrose until immunohistochemical processing. Brain section preparations were designed to identify stroke-induced cerebral infarction and NSI-189-induced neurogenic effects.
(§3) Brains were embedded in gelatin blocks and sectioned on a freezing sliding microtome at 40-μm. The sections were washed in PBS 5×10 min to remove the antigen preservative solution. Endogenous peroxidase was blocked using 3% H2O2 for 15 minutes. The sections were then incubated in 1% Triton-X100 for 30 minutes, and then blocked with 5% Normal Horse Serum (NETS) for 1 hour. The sections were incubated with the primary antibody that binds Ki67 (1:2000, Cat. #: ab16667, Abcam, CA) or that binds MAP2 (1:2000, Cat. #: AB5622, Millipore, MA) overnight, rinsed 5×5 min in PBS prior to pre-incubation in 5% NHS for 1 hour, then incubated with the secondary antibody which corresponded to the respective host of the primary antibody (Donkey or Rabbit, 1:2000, Cat. #: 711-066-152, Jackson ImmunoResearch Laboratories, Inc, PA) for 90 minutes. After rinsing in PBS (5×5 min), the sections were incubated with peroxidase-conjugated streptavidin (1:5000, Cat. #: 016-030-084, Jackson ImmunoResearch Laboratories, Inc, PA) with 1% NHS. The sections were washed 5×5 min in PBS after the streptavidin, prior to developing with DAB (3,3′-Diaminobenzidine Tetrahydrochloride Hydrate, Cat #: 1001306853, Sigma-Aldrich, St. Louis, Mo.) and Nickel chloride. After DAB processing, the sections were rinsed, mounted, and air-dried overnight. The slides were dehydrated, and coverslipped with DPX Mounting Medium (Cat #: 13512, Electron Microscopy Sciences, Hatfield, Pa.).
(§4) The slides were imaged and reviewed under Nikon bright-field microscope (Nikon, Tokyo, Japan). The regions of interest (ROIs), including the cerebral cortex, the hippocampal subfields (CA1+CA2, CA3 and DG) were contoured rostro-caudally and the immunoreactivity of the MAP2 density was measured by Nikon NIS-Element software and Ki67+ cells counted rostro-caudally along the subgranular zone (SGZ) by Image-Pro Premier (v10.10), respectively. The slides were coded and blinded to the analysts during the course of the study. After completion, quantitative data were extracted and transferred for the statistical analysis (Prism, GraphPad®, La Jolla, Calif.). The data values between groups were compared using ANOVA with Tukey's post-hoc tests (p<0.05).

Ki67 = Ki67 immunohistochemistry of stroke brains
From the text: as §2
as §3, with “The sections were washed 5×5 min in PBS after the streptavidin, prior to developing with DAB (3,3′-Diaminobenzidine Tetrahydrochloride Hydrate, Cat #: 1001306853, Sigma-Aldrich, St. Louis, Mo.) and Nickel chloride. After DAB processing, the sections were rinsed, mounted, and air-dried overnight. The slides were dehydrated, and coverslipped with DPX Mounting Medium (Cat #: 13512, Electron Microscopy Sciences, Hatfield, Pa.).” left out
as §4, with “The slides were coded and blinded to the analysts during the course of the study.” left out, “The data values between groups were compared using ANOVA with Tukey's post-hoc tests (p<0.05).” left out

[3] = 12 weeks and 24 weeks post-stroke, vs vehicle, p's>0.05
[4] = vs vehicle-treated stroke animals

SMILES: CC(C)CCNc1ncccc1C(=O)N1CCN(Cc2ccccc2)CC1.O=P(O)(O)O [NSI-189 phosphate]
- restoring motor skills in the EBST ([1]; 30 mg/kg orally 6 hours after stroke and daily for 12 weeks, vs vehicle): successful in restoring motor skills
- performance in the EBST (FIG. 1) ([1]; 30 mg/kg orally daily for 12 weeks, controls showed no such recovery): recovered performance in the EBST almost to baseline levels
- restoring motor skills in the Bederson neurological exam ([2]; MCAo rats, 30 mg/kg orally 6 hours after stroke and daily for 12 weeks, vs vehicle): successful in restoring motor skills
- performance in the Bederson neurological exam (FIG. 2) ([2]; MCAo rats, 30 mg/kg orally daily for 12 weeks, after 6 months): performance approaching that of control even after 6 months
- control of motor skills compared to vehicle animals ([2]; day 3 post stroke, p<0.05): showed control of motor skills as early as day 3 post stroke
- improvement of motor skills over time compared to untreated animals ([2]; during 12 weeks of drug treatment and the next 12 weeks after withdrawal, p<0.05): continued to improve over time compared to untreated animals
- MAP2 density in the cerebral cortex (MAP2; 12-week period, vs vehicle, p's<0.05): amplified MAP2 density
- MAP2 density in the hippocampus (MAP2; 12-week time point, vs vehicle, p's<0.05): increased MAP2 density
- cerebral infarction by MAP2 expression in the cortex and striatum (MAP2; [3]): did not significantly differ between groups
- MAP2 density in the cerebral cortex (MAP2; 24-week time point, vs vehicle): only detected at the 12-week period
- MAP2 density in the hippocampus (MAP2; 24-week time point, vs vehicle, p's<0.05): increased MAP2 density
- MAP2 staining (neurogenesis) in the peri-infarct cortex (MAP2; [4]): increased Ki67 and MAP2 staining
- Ki67 level in hippocampal subgranular zone (SGZ) (Ki67; [3]): comparable levels of Ki67
- Ki67 level in subventricular zone (SVZ) (Ki67; [3]): comparable levels of Ki67
- Ki67 staining (cell proliferation) in the peri-infarct cortex (Ki67; [4]): increased Ki67
